Data set [1] relates to Protease XXIII from Aspergillus oryzae (Enzyme A). The data set can be described thus: Homogeneous aqueous enzymatic resolution (ester hydrolysis) with Enzyme A. It is filed as biochemical. Conditions: 100 mg enzyme A. How it is done: No further purification was performed.
The nature of data set [2]: Solubility of esters, absorbance of saturated solutions at 262 nm. It is filed as physicochemical. Conditions: for Solubility: saturated solution, pH 7 (50 mM phosphate buffer), room temperature; for water solubility: in water.
Data set [3] deals with protease Prozyme 6 (Enzyme F). In words: Homogeneous aqueous enzymatic resolution with Enzyme F. Format: biochemical, Aspergillus oryzae. As to conditions: for % e.e.: naproxen acid product (R), 100 mg Prozyme 6, pH 7.0, 25 C. How it is done: The enzymatic reaction mixtures were capped and briefly shaken until all the substrate had dissolved, and the enzyme had completely dissolved or dispersed. […] Evaporation of the ether left a white solid. The result is summarized below in Table 11 Rotations were measured at c=1 in CHCl3.
The enzymatic reaction mixtures were capped and briefly shaken until all the substrate had dissolved, and the enzyme had completely dissolved or dispersed. […] Evaporation of the ether left a white solid. Rotations were measured at c=1 in CHCl3.
The reaction was started by adding 100 mg of the protease (F) from the fungus Aspergillus oryzae (from Amano Enzyme Corporation, Prozyme 6, 60,000 units per mg of solid).
After 20 hours at room temperature, the solution was acidified to pH 2 and extracted with 3 volumes of diethyl ether. The aqueous phase was saved for subsequent workup. The ether phase was washed with two volumes of distilled water and then one volume of saturated sodium chloride, and then it was dried over MgSO4 and subsequently evaporated to dryness. The resolved ibuprofen product recovered was 930 mg of white powder, indicating 45% conversion of racemic ester to acid. The optical rotation was -0.580° (measured at c=1 in ethanol), indicating the R isomer of ibuprofen.
35 mg of protease Enzyme F, as the commercial preparation Prozyme 6, were added to the aqueous solution. The reaction flask was capped, and briefly shaken until all the enzyme had dissolved or dispersed. […] The resulting mixture was diluted with one volume of water and was extracted with diethyl ether (2 times 200 ml). The ether layers were combined and backwashed with water (2 times 200 ml), saturated NaCl solution (200 ml), and then dried over MgSO4.
In this control run, a 0.5M ester solution of (1) was prepared in 325 ml of 0.1M sodium phosphate buffer (pH 7.0). The reaction was started by adding 3 gm of the above enzyme (F). The pH was controlled at 7.0 with 8.22M sodium hydroxide. After 6.49 hours at 30° C., 6.63 ml of hydroxide were added, indicating 37.7% conversion. The reaction was allowed to continue overnight and, after 23.1 hours, a total of 7.2 ml of sodium hydroxide were added, indicating 40.9% conversion.

Data set [4] has as its system Candida lipase, Genzyme (Enzyme G). The data set can be described thus: Asymmetric hydrolysis in a multiphasic bioreactor with Enzyme G.
Protocol: 3.0 grams of the lipase were dissolved in 500 mls of distilled water; this solution was recirculated in an ultrafiltration mode from the shell into the lumen and back to the reservoir for 30 minutes. The ultrafiltrate was then collected until the reservoir was empty, and methyl isobutyl ketone (MIBK) was then pumped into the shell and recirculated at 400-450 ml/min with a 5-7 psig shell pressure to remove any remaining enzyme solution from the shell.
A reactor was prepared as described in Example 6.2.2.5 (naproxen) using essentially the same mode of loading the enzyme, 3.0 grams of Candida lipase (Enzyme G, from Genzyme Corporation) were ultrafiltered from the shell into the lumen. […] The module was then drained.
No organic solvent was required as the substrate is already a water-immiscible liquid. Phosphate buffer was immediately pumped into the lumen and recirculated at 400-450 ml/min.
The reaction was monitored by following acid production based on hydroxide titration data. […] The aqueous buffer was replaced after 76 minutes and acidified to pH 2.0 with concentrated HCl in the presence of about 200 ml of chloroform.
Data set [5] concerns Candida lipase, Sigma L-1754 (Enzyme H). The data set can be described thus: Asymmetric hydrolysis in a multiphasic bioreactor with Enzyme H.
Protocol: The enzyme solution was recirculated from the shell side to the lumen side and back to the solution reservoir in an ultra-filtration mode. […] The procedure was completed in one hour.
The recirculation rate was 400 ml/min and the average pressure on the shell compartment was kept at 6.5 psi by adjusting a throttling valve at the shell side exit. On the lumen side 1 liter of 0.05M K2 PO4 was recirculated at a rate of 400 ml/min. The pH of the aqueous reservoir was kept at 7.0 by addition of 1M NaOH. The reactor was run continuously for 6.8 days.
The reaction progress and rate were monitored by following the caustic consumption.

The structures appear in SMILES notation. In brackets after ≈: the same amount, converted by molar mass. Counter-ions that a name gives are not always drawn.

In the case of `COc1ccc2cc(C(C)C(=O)OCS(=O)(=O)O)ccc2c1` (centres unmarked) [Compound 9, Sodium Salt of Sulfomethyl Ester of 2-(6-Methoxy-2-naphthyl)propanoic Acid], the “conversion (enzymatic hydrolysis)” value in data set [1] (2.0 gm ester in 400 ml 50 mM sodium phosphate pH 7.5, 25 degrees, 16 hours) stood at 18%. In data set [1] (pH 7.5, 25 degrees, 16 hours), the “enantiomeric excess of R isomer of naproxen (acid product)” value was 61.2% and the “enantiomeric excess of S isomer of Naproxen (from unconverted ester hydrolysed at pH 12)” value was 45.5%.

Regarding `CC(C)Cc1ccc(C(C)C(=O)OCCN(C)C)cc1` (centres unmarked) [2-(N,N-dimethylamino)ethyl ester of ibuprofen, reference compound], the Solubility in data set [2] was found to be 10 mM (≈ 2770 µg/mL).

For the compound `COc1ccc2cc(C(C)C(=O)OCC[N+](C)(C)C)ccc2c1` (centres unmarked) [Compound 11, Methyl Sulfate Salt of 2-(N,N,N-Trimethylammonium)ethyl Ester of 2-(6-Methoxy-2-naphthyl)propanoic Acid], in data set [3] (18 hours), the “% e.e.” value is 34.0%.

Turning to `COC(=O)C(C)c1ccc2cc(OC)ccc2c1` (racemic) [Compound 18, Methyl Ester of 2-(6-Methoxy-2-naphthyl)propanoic Acid], the “average rate (hydrolysis)” value in data set [4] (first 45 minutes, 0.75M ester in MIBK, pH 8.50, 3.0 grams lipase) was 35 µmol/h.

Compound `CC(Oc1ccc(Cl)cc1)C(=O)OCS(=O)(=O)O` (centres unmarked) [Compound 17, Sodium Salt of the Sulfomethyl Ester of 2-(4-Chlorophenoxy)propanoic Acid] displayed a reaction completion in data set [3] (35 mg Prozyme 6, 10 mmol ester in 100 ml 0.2M sodium phosphate pH 7.0, 30 C, 1 hour) of 22.5%.

Turning to `COc1ccc2cc(C(C)C(=O)OCCC[N+](C)(C)C)ccc2c1` (centres unmarked) [Compound 12, Methyl Sulfate Salt of 3-(N,N,N-Trimethylammonium)propyl Ester of 2-(6-Methoxy-2-naphthyl)propanoic Acid], the “% CONVERSION” value in data set [3] (100 mg Prozyme 6, 10 mmol ester in 100 ml 0.2M phosphate buffer pH 7.0, 25 C, 18 hours) came out at 34.0%. In addition, the “% e.e.” value in data set [3] (18 hours) was 21.6%. The Solubility in data set [2] was determined as 1610 mM.

`CCCCCCCCOC(=O)C(C)Cl` (centres unmarked) [Compound 20, Octyl Ester of 2-Chloropropanoic Acid]: the water solubility result in data set [2] is reported as “approximately 1.2 mM”. In addition, the Solubility in data set [2] amounted to 1.2 mM (≈ 265 µg/mL). The same compound displayed an initial ester hydrolyzed in data set [5] (at termination, 6.8 days) of 41%. Moreover, the “rate of ester hydrolysis” value in data set [5] (at the beginning of the experiment, pH 7.0, 30 grams lipase) was 186 µmol/min; in data set [5] (at the end (6.8 days)), 25 µmol/min.

For the compound `COCCOC(=O)C(C)c1ccc(CC(C)C)cc1` (centres unmarked) [Methoxyethyl ester of ibuprofen, reference compound], in data set [2], the Solubility amounted to 0.18 mM (≈ 47.6 µg/mL).

Regarding `CC(C)Cc1ccc(C(C)C(=O)OCC(F)(F)F)cc1` (centres unmarked) [Compound 19, 2,2,2-Trifluoroethyl Ester of 2-(4-Isobutylphenyl)propanoic Acid], in data set [4] (first 60 minutes, neat liquid ester, pH 7.7, 3.0 grams lipase), the average hydrolytic rate was determined as 160 µmol/min. In data set [4] (over the next 76 hours), the conversion to acid result is “about 9.8%”. This compound also displayed an average hydrolysis rate in data set [4] (over the next 76 hours, by titrimetry) of 21 µmol/min. For the same compound, in data set [2], the water solubility result is reported as “roughly 0.4 mM” and the Solubility is 0.4 mM (≈ 115 µg/mL).

With `CC(C)Cc1ccc(C(C)C(=O)OCC[N+](C)(C)C)cc1` (centres unmarked) [Compound 10, Iodide Salt of 2-(N,N,N-Trimethylammonium)ethyl Ester of 2-(4-Isobutylphenyl)propanoic Acid], the “% e.e.” value in data set [1] (acid product (R), pH 7.0, 20 hours, 20-22 C) is given as over 99%. In data set [2], this compound gave a Solubility of 2180 mM.

The record behind these values is patent US5196568A, “Compounds useful in enzymatic resolution systems and their preparation” (priority 1988, dated 1993).
